What is called melting point is the temperature, or range, at which the solid turns liquid. `N#Cc1nc(NCc2cnn(-c3c(Cl)cc(C(F)(F)F)cc3Cl)n2)[nH]c1C#N` yielded a melting point of 213 to 215 °C. For `CCCc1nc2c(N)nc3c(c2n1CCCCCC(=O)N1CCOCC1)CCCC3` the value was 162 to 163 °C. Turning to `COc1ccc(C2=NN(Cc3ccc([N+](=O)[O-])cc3)C(=O)CC2)cc1OC`, the melting point is 126 °C.

Compound `CCOC(=O)C(Cc1ccc(C(F)(F)F)cc1)C(=O)c1ccoc1` (stereo not drawn) yielded a melting point of 55 to 56 °C. In the case of `CN(C)C(=O)c1cccnc1C(=O)c1cccc(C(F)(F)F)c1` it was 100 to 103 °C; in that of `CCNc1cccnc1N1CCN(C(=O)c2ccc(C(=O)NCc3ccccn3)cn2)CC1`, 129 to 131 °C; in that of `CN1C(=O)CC[C@]2(C)c3ccc(Sc4nc5c(OC(F)(F)F)cccc5s4)cc3CC[C@@H]12`, 168 to 173 °C.

For the compound `CC(=O)Nc1c([N+](=O)[O-])cc(C)c(OC(F)F)c1C`, the melting point fell in the range of 184 to 185 °C. In the case of `Cc1ccc(COc2ncc(F)c(NS(=O)(=O)c3ccc(C)cc3)n2)cc1` it was 120 to 122 °C. Consider `CN(CC#CC1=Cc2ccccc2Sc2ccc(Cl)cc21)CCO`, for which the melting point lay within 86 to 88 °C.

Turning to `Nc1ncc(-c2cnc3ccc(-c4ccc(OCC5(N)COC5)cc4)nn23)cc1C(F)(F)F`, the melting point was in the range of 198 to 200 °C.

Compound `Cc1cc(-n2ccnc2)c2cccc(OCc3c(Cl)ccc(S(=O)(=O)N4CCC[C@H]4C(=O)NCCc4ccncc4)c3Cl)c2n1` displayed a melting point of 120 °C.

`O=C(O)c1cnccc1Cc1cc(Cl)ccc1F` showed a melting point of 174 to 176 °C. For `CC(C)n1nc(-c2nc(Oc3ccc(F)cc3)c(N)nc2-c2ccccc2)ccc1=O` the value was 173 to 175 °C. As to `Cc1cc2c(cc1C(=O)c1ccccc1Cl)OC(C(=O)O)O2` (stereo not drawn), the melting point was in the range of 133 to 135 °C. Regarding `COc1ccc(Cn2cnc3c(-c4ccco4)nc(-c4ccccc4)nc32)cc1`, the melting point lay in the range of 140 to 142 °C. In the case of `COC(=O)c1c(Br)c(Br)c(C(=O)OC)c(Br)c1Br` it was 207 to 210 °C. In the case of `COc1ccc(C(=O)N(C(=O)c2ccc(OC)cc2)c2nc3ccc(N(C)C)cc3c(NCc3ccco3)c2C#N)cc1` it was 143 °C; in that of `COc1cc(OC)cc(C(=CC#N)c2ccc(OC)c(F)c2)c1`, 91 to 93 °C. In the case of `CS(=O)(=O)c1ccc(-c2cc(CO)nn2Cc2ccccc2)cc1` it was 155 °C.

Consider `CCCC(C)SC1NN=C(c2ccncc2)N1c1ccccc1` (stereo not drawn), for which the melting point is 96 to 97 °C.

Consider `O=C(NCCO)c1nc2ccccc2[nH]1`, for which the melting point lay in the range of 194 to 195 °C.

`NS(=O)(=O)c1ccc2c(c1)C(=O)C1(CCOC1=O)O2` (stereo not drawn) showed a melting point of 202 to 215 °C.

Regarding `O=C1NCc2c1c1c(c3[nH]c4ccccc4c23)Cc2ccc(Br)cc2-1`, the melting point is greater than 340 °C. Compound `N#Cc1nc2cc3c(cc2[nH]1)OC(F)(Cl)C(F)(Cl)O3` (stereo not drawn) showed a melting point greater than 230 °C. In the case of `Cc1cccc2c1CCNC2=O` it was 141 to 143 °C; in that of `COc1cc(COc2cc(/C=C/c3ccccn3)n(-c3ccccc3)n2)ccc1OCc1nc(-c2ccco2)oc1C`, 122 to 123 °C. Take `O=C(O)COc1cccc(C(=O)O)c1OCC(=O)O`: the melting point lay within 195 to 197 °C. Consider `COc1cc2c(cc1OC)-c1cc(OC)c(OC)cc1C1CN3C(=O)CCC3C=C21` (stereo not drawn), for which the melting point lay within 252 to 254 °C. In the case of `CCCc1nn(-c2ccc(C(F)(F)F)cn2)cc1C(=O)OCC` it was 102 to 103 °C. As to `CC(C)(O)Cn1c(COCc2ccccc2)nc2c(N)nc3ccccc3c21`, the melting point was in the range of 196 to 198 °C.

`Cc1ccc(S(=O)(=O)Oc2ccc(C(=O)c3c(-c4ccccc4)cc4ccccn34)cc2)cc1` returned a melting point of 177 to 178 °C. As to `CCOC(=O)c1c(C)cc2c(c1C)c(=O)n(-c1ccccc1Cl)c(=O)n2CC(N)=O`, the melting point was in the range of 285 to 287 °C. In turn, `C=CC(=O)Nc1cccc(OC(=O)NCCCCCCCCCCCCCCCCCC)c1` gave a melting point of 124 to 126 °C. As for `CC(=O)N1CCc2cc(C(=O)CCCCCl)ccc21`, the melting point fell in the range of 90 to 91 °C. In turn, `O=C(NC(Cc1ccc(OCc2ccccc2)cc1)C(=O)O)c1ccc2nc(-c3ccc(Cl)cc3)cn2c1` (stereo not drawn) showed a melting point of 278 to 280 °C. `CC=C(C)C1CCC2C3CC=C4CC(O)CCC4(C)C3CCC12C` (stereo not drawn) yielded a melting point of 140 to 145 °C. In turn, `CCCCC(=O)Nc1ccc(N)cc1Cl` registered a melting point of 96.5 to 99 °C.

`O=C1c2c(Cl)cccc2-n2cnc(C(=O)n3ccnc3)c2[C@@H]2CCCN12`: the melting point lay in the range of 240 to 242 °C. In the case of `COC(=O)Cc1cc(OC)ccc1O` it was 69 to 70 °C.

The compound `CC(C)(Oc1ccc(CC(=O)Nc2ccc(C(F)(F)F)cc2)cc1)C(=O)O` returned a melting point of 197 °C. In the case of `COc1cc(C)cc(OC)c1-c1nc(=NO)c(=O)n(C)c2ccccc12` it was 150 °C.

The compound `COC(=O)C1=C(C)NC(C)=C(C(=O)OCCOc2ccc(CCOC(C)=O)cc2)C1c1cccc([N+](=O)[O-])c1` (stereo not drawn) yielded a melting point of 110 °C. In the case of `Nc1ccc(SCCn2cnnc2)cc1` it was 160 to 162 °C; in that of `O=C(NCCN1CCc2ccc3c(c21)CCO3)C1CC1`, 147 to 149 °C; in that of `CCOC(=O)c1cc(-c2ccc(C)cc2)n(-c2ccc(S(N)(=O)=O)cc2)n1`, 220 to 222 °C.

Turning to `O=Cc1c(Cl)c(Br)c(Br)c(Br)c1Br`, the melting point was in the range of 268 to 269 °C. For `CC(=O)OC(C)Cc1ccc(-c2ccc(C(C)=O)cc2)cc1` (stereo not drawn) the value was 60 to 61 °C. Regarding `COc1ccc(C2CC(O)(c3ccc(OC4CCCCO4)cc3)C2)cc1` (stereo not drawn), the melting point lay in the range of 72 to 75 °C. `CC(=O)N1CCc2ccc(S(=O)(=O)n3c(CCCC(=O)O)cc4cc(Cl)ccc43)cc2C1` registered a melting point of 95 to 97 °C. The compound `CN1Cc2c(C(=O)OCC3CCC3)ncn2-c2cccc(Cl)c2C1=O` came in with a melting point of 181 to 182 °C. In the case of `CNC(=O)/C=C/c1cccc(Br)c1` it was 147 to 148 °C; in that of `CNS(=O)(=O)c1cc(Cl)sc1C(=O)O`, 103 to 104 °C. As for `CCCCCCCCNC(=O)Nc1ccc(Nc2ccc(N(CC)CCNS(C)(=O)=O)cc2C)c2ccccc12`, the melting point was in the range of 132 to 133 °C.

`COc1cccc(-n2cccn2)c1C#N` registered a melting point of 93 to 94 °C.

Consider `O=C(CCCOc1ccc2nc3[nH]c(=O)[nH]c3cc2c1)NC1CCCCC1`, for which the melting point is greater than 320 °C. As to `O=C(NC(CCl)c1ccc(-c2ccc(S(=O)(=O)C(F)F)cc2)cc1)c1c(F)cccc1F` (stereo not drawn), the melting point lay within 146 to 149 °C. For `O=C(Nc1nccs1)c1nc(-c2cccc3ccccc23)[nH]c1-c1ccc(C(F)(F)F)cc1` the value was 222 to 223 °C; for `COCCOc1ccc(/C=C/COC(=O)NS(=O)(=O)NCCOC(C)C)c(Oc2ncc(C(F)(F)F)cc2Cl)c1`, 127 to 128 °C; for `C=CCc1c(OCc2ccccc2)ccc2c(=O)ccoc12`, 90 to 92 °C. Compound `C[Si](C)(C)c1ccc(C(=O)Nc2nnn[nH]2)o1` gave a melting point of 247 to 248 °C.

In the case of `COc1c(C=CC(=O)c2ccc(O)cc2)ccc(O)c1C`, the melting point is 185 to 187 °C. For `CC(=O)OCCn1ccc(=O)c(OCc2ccccc2)c1C(OC(C)=O)c1ccc(F)cc1` (stereo not drawn) the value was 118 to 119 °C. In turn, `CN(Cc1c2ccccc2cc2ccccc12)C(=O)Nc1ccccc1CCc1cc(C(C)(C)C)c(O)c(C(C)(C)C)c1` had a melting point of 205 to 206 °C. On to `CCCCCc1ccc2c(c1)Cc1cc(CCCCC)ccc1-2`, for which the melting point fell in the range of 98.9 to 99.6 °C. In the case of `COc1ccc(NC(=O)NCc2ccc3c(c2)CN(C2CCC(=O)NC2=O)C3=O)cc1OC` (stereo not drawn) it was 216 to 218 °C; in that of `Cc1cc(OC(=O)c2ccc(Cl)cc2)n(C)n1`, 100 to 101 °C. In the case of `N#Cc1ncn2c(C(F)(F)F)cc(-c3ccccc3)nc12` it was 202 °C.

In turn, `Nc1nnc(-c2ccc3occ(-c4cc(F)ccc4F)c3c2)o1` displayed a melting point of 245 to 246 °C. Turning to `CNC1CCN(c2nc3c(cc2F)c(=O)c(C(=O)O)cn3CCF)C1` (stereo not drawn), the melting point was in the range of 243 to 245 °C. In the case of `O=C(O)COc1cccc(-c2ccccc2OC2OC(CO)C(O)C(O)C2O)c1` (stereo not drawn) it was 58 to 60 °C; in that of `CN1CC(=O)Nc2cccc(Cl)c2C1=O`, 230 to 232 °C; in that of `Oc1ccc(Sc2nnc3cc(Cl)ccc3n2)cc1`, 238 °C.

In turn, `O=c1ccc2c(-c3ccc(O)cc3)nccc2[nH]1` registered a melting point greater than 300 °C. Take `Nc1ccc(Br)cc1C(=O)c1ccccc1`: the melting point is 109 to 110 °C.

As to `CC(C)(Cc1ccc(OCC(=O)O)cc1)NS(=O)(=O)c1ccc(Cl)cc1`, the melting point fell in the range of 177 to 178 °C. In the case of `O=C(O)c1cn2c3c(ccc([N+](=O)[O-])c3c1=O)C1CCCCC12` (stereo not drawn) it was 251 to 253 °C; in that of `CCO/N=C(/C(=O)OCC)c1ccc(OCCOc2ccc3ccccc3c2)s1`, 102 to 104 °C. In turn, `COc1cc2c(cc1OC)S(=O)(=O)N(C)C(C(N)=O)C2` (stereo not drawn) yielded a melting point of 215 to 222 °C.

Take `Nc1nc(OCCc2ccccc2Cl)nc2c1ncn2C1OC(CO)C(O)C1O` (stereo not drawn): the melting point fell in the range of 158 to 161 °C.

In turn, `CC(C)Nc1nc2c(F)c(F)c(Cl)cc2[nH]1` gave a melting point of 175 to 178 °C. In the case of `CCCOc1cc(C)cnc1CCCCNc1ncc(Cc2ccc(C)nc2)c(=O)[nH]1` it was 81 to 85 °C; in that of `COc1ccc(Cn2nc(-c3ccc(S(C)=O)cc3)c(-c3ccc(F)cc3)cc2=O)cc1` (stereo not drawn), 81.3 to 81.5 °C. For `COc1c(OC2CCC(=O)CC2)ccnc1C` the value was 56 to 57 °C. For `CS(=O)c1ccc(-c2nn(CC3CC3)c(=O)cc2-c2ccc(Cl)cc2)cc1` (stereo not drawn) the value was 152 °C; for `O=C(CCC1C2CC3CC(C2)CC1C3)N1C(=O)OCC1Cc1ccccc1` (stereo not drawn), 82 to 83 °C. Consider `COc1nc(N)nc(-c2ccc(S(C)=O)cc2)c1-c1ccc(=O)n(C(C)C)n1` (stereo not drawn), for which the melting point fell in the range of 127 to 130 °C. For `CCOC(=O)/C(=N\OC1CCS(=O)(=O)C1)c1csc(N)n1` (stereo not drawn) the value was 147 to 148 °C.

The values are drawn from a melting point compilation (Tetko et al.; mined from patent text by program, amines drawn as free bases though some values may be those of a salt).
